# Measurements as given in ChEMBL document CHEMBL5329158 (RSC Med Chem, 2023).
# How the values were obtained:
# [1] = Selectivity index, ratio of CC50 for cytotoxicity against mouse NCTC clone 929 cells assessed as inhibition of cell growth to IC50 for antileishmanial activity against Leishmania infantum MHOM/BR/1972/LD amastigotes infected in mouse Peritoneal macrophage cells assessed as inhibition of parasite growth; assay type: toxicity, cell-based; details: read-out: Ratio CC50/IC50
# Leishmania infantum = experiment: Antileishmanial activity against Leishmania infantum MHOM/BR/1972/LD amastigotes infected in mouse Peritoneal macrophage cells assessed as inhibition of parasite growth incubated for 96 hrs by light microscopic analysis; assay type: functional, organism-based
# [2] = Leishmania infantum, MHOM/BR/1972/LD, Peritoneal macrophage, 96 h, read-out: IC50
Compound,selectivity ratio [1],IC50 (Leishmania infantum; [2]) [µM],other results
CCCc1ccc(Oc2cc(CN3CCOCC3)cc(OC)c2OCc2ccc(OC)cc2)c(OC)c1,> 12.2,–,–
C=CCc1ccc(Oc2cc(CC=C)cc(OC)c2O)cc1,–,–,IC50 (Leishmania infantum; peritoneal macrophage): Not Active
CCCc1cc(OC)c(OCc2ccc(OC)cc2)c(Oc2ccc(CN3CCOCC3)cc2OC)c1,9.7,–,–
C=CCc1cc(OC)c(OCc2ccc(OC)cc2)c(Oc2ccc(CCC)cc2OC)c1,–,> 50,–
C=CCc1ccc(Oc2cc(CC=C)cc(OC)c2OCCN2CCOCC2)c(OC)c1,6.6,–,–
C=CCc1cc(OC)c(OCc2ccc(OC)cc2)c(Oc2ccccc2OC)c1,> 8.3,–,–
C=CCc1cc(OC)cc(Oc2ccc(CC=C)cc2OC)c1,–,> 50,–
C=CCc1ccc(Oc2cccc(OC)c2OC(C)=O)c(OC)c1,–,> 50,–
COc1ccc(COc2c(OC)cc(CN3CCOCC3)cc2Oc2ccc(CN3CCOCC3)cc2OC)cc1,2.7,–,–
C=CCc1cc(OC)c(O)c(Oc2ccc(CCC)cc2OC)c1,–,> 50,–
CCCc1ccc(Oc2cc(CN3CCOCC3)cc(OC)c2OCc2ccc(OC)cc2)cc1,> 13.1,–,–
C=CCc1ccc(Oc2cc(CC=C)cc(OC)c2OCOC)c(OC)c1,–,> 50,–
CCCc1ccc(Oc2cc(CN3CCOCC3)cc(OC)c2OCc2cc(OC)c(OC)c(OC)c2)c(OC)c1,> 7.6,–,–
C=CCc1ccc(Oc2cc(CC=C)cc(OC)c2OCc2ccc(OC)cc2)c(OC)c1,–,> 50,–
C=CCc1ccc(Oc2cc(CC=C)cc(OC)c2OCCN2CCCC2)c(OC)c1,6,–,–
C=CCc1ccc(Oc2cc(CC=C)cc(OC)c2OCC(=O)N2CCCC2)c(OC)c1,2.6,–,–
C=CCc1ccc(Oc2cccc(OC)c2OC)c(OC)c1,–,> 50,–
C=CCc1cc(OC)c(O)c(Oc2ccc(CN3CCOCC3)cc2OC)c1,–,> 50,–
C=CCc1cc(OC)c(O)c(Oc2ccccc2OC)c1,–,> 50,–
C=CCc1cc(OC)c(OC)c(Oc2ccc(CCC)cc2OC)c1,–,> 50,–

Compound,selectivity ratio [1],IC50 (Leishmania infantum; [2]) [µM],other results
C=CCc1cc(OC)c(OC)c(Oc2ccccc2OC)c1,–,> 50,–
CCCc1cc(OC)c(OCc2ccc(OC)cc2)c(Oc2ccc(CN3CCCCC3)cc2OC)c1,3.9,–,–
C=CCc1ccc(Oc2cc(CCC)cc(OC)c2OCc2ccc(OC)cc2)c(OC)c1,–,> 50,–
C=CCc1ccc(Oc2cc(CC=C)ccc2OCc2ccc(OC)cc2)c(OC)c1,–,–,IC50 (Leishmania infantum; peritoneal macrophage): Not Active
C=CCc1cc(OC)c(OC(C)=O)c(Oc2ccccc2OC)c1,> 6.1,–,–
C=CCc1cc(OC)c(OCc2ccc(OC)cc2)c(Oc2ccc(CN3CCOCC3)cc2OC)c1,> 20.6,–,–
C=CCc1ccc(Oc2cc(CC=C)cc(OC)c2OCc2ccc(OC)cc2)cc1,–,–,IC50 (Leishmania infantum; peritoneal macrophage): Not Active
C=CCc1cc(OC)c(OCc2ccc(OC)cc2)c(Oc2ccc(CN3CCCC3)cc2OC)c1,–,> 50,–
CCCc1ccc(Oc2cc(CN3CCCCC3)cc(OC)c2OCc2ccc(OC)cc2)cc1,7.6,–,–
CCCCCCCCCCCCCCCCOP(=O)([O-])OCC[N+](C)(C)C [MILTEFOSINE],18.4,–,–
C=CCc1ccc(Oc2cccc(OC)c2OCc2ccc(OC)cc2)c(OC)c1,–,–,IC50 (Leishmania infantum; peritoneal macrophage): Not Active
C=CCc1ccc(O)c(Oc2ccc(CC=C)cc2OC)c1,–,–,IC50 (Leishmania infantum; peritoneal macrophage): Not Active
C=CCc1ccc(Oc2cccc(OC)c2O)c(OC)c1,–,> 50,–
C=CCc1cc(OC)c(O)c(Oc2ccc(CN3CCCC3)cc2OC)c1,–,> 50,–
CCCc1ccc(OCc2ccc(OC)cc2)c(Oc2ccc(CN3CCOCC3)cc2OC)c1,–,–,IC50 (Leishmania infantum; peritoneal macrophage): Not Active
C=CCc1ccc(Oc2cc(CCC)cc(OC)c2O)c(OC)c1,–,> 50,–
C=CCc1ccc(Oc2cc(CC=C)cc(OC)c2OCC(=O)N2CCOCC2)c(OC)c1,–,> 50,–
CCCc1ccc(Oc2cc(CCC)cc(OC)c2OCc2ccc(OC)cc2)c(OC)c1,–,> 50,–
CCCc1ccc(Oc2cc(CN3CCOCC3)cc(OC)c2OCc2ccc(C(F)(F)F)cc2)c(OC)c1,> 15.1,–,–
